Non-standard residues stand in square brackets, D forms with d. Residues, ends and D or L forms follow the SMILES beside them. No end group written: not given here. Orn = NCCC[C@H](N)C(=O)O; Aib = CC(C)(N)C(=O)O

In one test the target is T1, LCAT (purified from human plasma) (Homo sapiens, UniProt P04180).
T1 construct: from tissue; host or cells: human plasma
T1 sequence (P04180 25-440): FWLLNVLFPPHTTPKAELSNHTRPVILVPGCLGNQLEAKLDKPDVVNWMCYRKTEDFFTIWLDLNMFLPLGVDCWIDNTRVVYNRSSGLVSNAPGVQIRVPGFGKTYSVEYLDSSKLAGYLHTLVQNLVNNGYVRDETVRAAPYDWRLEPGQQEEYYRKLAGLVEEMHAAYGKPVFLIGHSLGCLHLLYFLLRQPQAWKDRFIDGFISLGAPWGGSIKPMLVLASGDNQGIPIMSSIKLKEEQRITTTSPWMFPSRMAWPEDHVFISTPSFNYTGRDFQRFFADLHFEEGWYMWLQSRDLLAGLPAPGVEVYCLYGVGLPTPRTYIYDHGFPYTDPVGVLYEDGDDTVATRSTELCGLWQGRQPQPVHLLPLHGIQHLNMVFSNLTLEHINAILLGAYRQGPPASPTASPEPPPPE
As to the kind of experiment: LCAT activation assay. The following applies: LCAT activation as compared with native human ApoA-I (= 100%), equivalent masses. It is filed as biochemical. In a few lines:
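Substrate SUVs of EPC or POPC with 14C-cholesterol (20:1 molar ratio), in 10 mM Tris, 0.14 M NaCl, 1 mM EDTA, pH 7.4, were preincubated with peptide or equal mass of plasma ApoA-I. Reaction started with human plasma LCAT; activation was measured as cholesterol-to-ester conversion relative to ApoA-I (100%).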
Turning to “Ac-EWLEAFYKKVLEKLKELF-NH2 [compound 239, reference compound]”, the “ACTIVITY (%) LCAT” value stood at 11%.

Turning to `CC(C)C[C@H](NC(=O)[C@H](C)NC(=O)[C@H](CCC(=O)O)NC(=O)[C@H](CC(C)C)NC(=O)[C@H](CC(C)C)NC(=O)[C@H](CCC(=O)O)NC(=O)[C@H](CC(N)=O)NC(=O)[C@H](CC(C)C)NC(=O)[C@H](CC(C)C)NC(=O)[C@H](CCC(=O)O)NC(=O)[C@H](CCCNC(=N)N)NC(=O)[C@H](Cc1ccccc1)NC(=O)[C@H](CC(C)C)NC(=O)[C@H](CC(=O)O)NC(=O)[C@H](CC(C)C)NC(=O)[C@H](NC(=O)[C@H]1CCCN1)C(C)C)C(=O)N[C@@H](CCCCN)C(=O)N[C@@H](CCC(N)=O)C(=O)N[C@@H](CCCCN)C(=O)N[C@@H](CC(C)C)C(=O)N[C@@H](CCCCN)C(=O)O` [compound 48], the “ACTIVITY (%) LCAT” value was determined as 22%.

For `CC(C)C[C@H](NC(=O)[C@H](C)NC(=O)[C@H](CCC(=O)O)NC(=O)[C@H](CO)NC(=O)C(C)(C)NC(=O)[C@H](CCC(=O)O)NC(=O)[C@H](CC(N)=O)NC(=O)[C@H](CC(C)C)NC(=O)[C@H](CCCCN)NC(=O)[C@H](CCC(=O)O)NC(=O)[C@H](CCCNC(=N)N)NC(=O)[C@H](Cc1ccccc1)NC(=O)[C@H](CCC(=O)O)NC(=O)[C@H](CC(=O)O)NC(=O)[C@H](CC(C)C)NC(=O)[C@@H](NC(=O)[C@@H]1CCCN1)C(C)C)C(=O)N[C@@H](CCCCN)C(=O)N[C@@H](CCC(N)=O)C(=O)N[C@@H](CCCCN)C(=O)N[C@@H](CC(C)C)C(=O)N[C@@H](CCCCN)C(=O)O` [compound 112, PVLDEFREKLNEXSEALKQKLK] (H-PVLDEFREKLNE[Aib]SEALKQKLK-OH), the “ACTIVITY (%) LCAT” value turned out to be 0%.

Turning to VLDLFRELLNEGLEALKQKLK [compound 47], the “ACTIVITY (%) LCAT” value came out at 23%.

For PVLDLFRELLNELWQKLK [compound 219], the “ACTIVITY (%) LCAT” value is 24%.

As to “Ac-PLLDLFKELLEELKQKLK-NH2 [compound 201]”, the “ACTIVITY (%) LCAT” value came to 74%.

Turning to “Ac-PVLDFFRELLEELKQKLK-NH2 [compound 204]”, the “ACTIVITY (%) LCAT” value is listed as 63%.

Take PVLDLFREKLNELLEALKQKLK [compound 33]: the “ACTIVITY (%) LCAT” value is listed as 33%.

As to PVLELFDNLLERLLDALQKKLK [compound 179], the “ACTIVITY (%) LCAT” value was 8%.

Regarding GVLELFLNLLERLLDALQKKLK [compound 177], the “ACTIVITY (%) LCAT” value is 10%.

For the compound “Ac-PVLDLFRELLEEGKQKLK-NH2 [compound 229]”, the “ACTIVITY (%) LCAT” value came out at 0%.

As to LVLDLFRELLNELLEALKQKLK [compound 59], the “ACTIVITY (%) LCAT” value is 17%.

As to `CC(C)C[C@H](NC(=O)[C@H](C)NC(=O)[C@H](Cc1c[nH]c2ccccc12)NC(=O)[C@H](CC(C)C)NC(=O)C(C)(C)NC(=O)[C@H](CCC(=O)O)NC(=O)[C@H](CC(N)=O)NC(=O)[C@H](CC(C)C)NC(=O)[C@H](CC(C)C)NC(=O)[C@H](CCC(=O)O)NC(=O)[C@H](CCCNC(=N)N)NC(=O)[C@H](Cc1ccccc1)NC(=O)[C@H](CC(C)C)NC(=O)[C@H](CC(=O)O)NC(=O)[C@H](CC(C)C)NC(=O)[C@@H](NC(=O)[C@@H]1CCCN1)C(C)C)C(=O)N[C@@H](CCCCN)C(=O)N[C@@H](CCC(N)=O)C(=O)N[C@@H](CCCCN)C(=O)N[C@@H](CC(C)C)C(=O)N[C@@H](CCCCN)C(=O)O` [compound 72, PVLDLFRELLNEXLWALKQKLK] (H-PVLDLFRELLNE[Aib]LWALKQKLK-OH), the “ACTIVITY (%) LCAT” value was found to be 11%.

For the compound PVLDLFERLLNELLEALQKKLK [compound 80], the “ACTIVITY (%) LCAT” value was 9%.

Take GVLDLFRELLNELLEALKQKLKK [peptide 2]: the “ACTIVITY (%) LCAT” value is 105%.

On to PVLDLFRELLNELLEGLKQKLK [compound 22], for which the “ACTIVITY (%) LCAT” value came to 54%.

As to PLLELFKELLQELLEALKQKLK [peptide 23], the “ACTIVITY (%) LCAT” value amounted to 54%.

As to `CC(C)C[C@H](NC(=O)[C@H](C)NC(=O)[C@H](CCC(=O)O)NC(=O)[C@H](CC(C)C)NC(=O)C(C)(C)NC(=O)[C@H](CCC(=O)O)NC(=O)[C@H](CC(N)=O)NC(=O)[C@H](CC(C)C)NC(=O)[C@H](CCCCN)NC(=O)[C@H](CCC(=O)O)NC(=O)[C@H](CCCNC(=N)N)NC(=O)[C@H](Cc1ccccc1)NC(=O)[C@H](CCC(=O)O)NC(=O)[C@H](CC(=O)O)NC(=O)[C@H](CC(C)C)NC(=O)[C@@H](N)C(C)C)C(=O)N[C@@H](CCCCN)C(=O)N[C@@H](CCC(N)=O)C(=O)N[C@@H](CCCCN)C(=O)N[C@@H](CC(C)C)C(=O)N[C@@H](CCCCN)C(=O)O` [compound 65, ~VLDEFREKLNEXLEALKQKLK] (H-VLDEFREKLNE[Aib]LEALKQKLK-OH), the “ACTIVITY (%) LCAT” value is 15%.

Take `CC(C)C[C@H](NC(=O)[C@H](C)NC(=O)[C@H](CC(=O)O)NC(=O)[C@H](CC(C)C)NC(=O)[C@H](CC(C)C)NC(=O)[C@H](CCCN)NC(=O)[C@H](CCC(=O)O)NC(=O)[C@H](CC(C)C)NC(=O)[C@H](CC(C)C)NC(=O)[C@H](CC(N)=O)NC(=O)[C@H](CCC(=O)O)NC(=O)[C@H](Cc1ccccc1)NC(=O)[C@H](CC(C)C)NC(=O)[C@H](CCC(=O)O)NC(=O)[C@H](CC(C)C)NC(=O)[C@@H](NC(=O)[C@@H]1CCCN1)C(C)C)C(=O)N[C@@H](CCC(N)=O)C(=O)N[C@@H](CCCN)C(=O)N[C@@H](CCCN)C(=O)N[C@@H](CC(C)C)C(=O)N[C@@H](CCCN)C(=O)O` [compound 170, PVLELFENLLEOLLDALQOOLO] (H-PVLELFENLLE[Orn]LLDALQ[Orn][Orn]L[Orn]-OH): the “ACTIVITY (%) LCAT” value came out at 17%.

For “Ac-PVLDLFREGLEELKQKLK-NH2 [compound 228]”, the “ACTIVITY (%) LCAT” value is recorded as 0%.

As to PVLELFENLLERLLEALQKKLK [compound 161], the “ACTIVITY (%) LCAT” value came to 27%.

In the case of `CC(C)C[C@H](NC(=O)[C@H](C)NC(=O)[C@H](Cc1c[nH]c2ccccc12)NC(=O)[C@H](CC(C)C)NC(=O)C(C)(C)NC(=O)[C@H](CCC(=O)O)NC(=O)[C@H](CC(N)=O)NC(=O)[C@H](CC(C)C)NC(=O)[C@H](CCCCN)NC(=O)[C@H](CCC(=O)O)NC(=O)[C@H](CCCNC(=N)N)NC(=O)[C@H](Cc1ccccc1)NC(=O)[C@H](CCC(=O)O)NC(=O)[C@H](CC(=O)O)NC(=O)[C@H](CC(C)C)NC(=O)[C@@H](NC(=O)[C@@H]1CCCN1)C(C)C)C(=O)N[C@@H](CCCCN)C(=O)N[C@@H](CCC(N)=O)C(=O)N[C@@H](CCCCN)C(=O)N[C@@H](CC(C)C)C(=O)N[C@@H](CCCCN)C(=O)O` [compound 89, PVLDEFREKLNEXLWALKQKLK] (H-PVLDEFREKLNE[Aib]LWALKQKLK-OH), the “ACTIVITY (%) LCAT” value was 6%.

As to PVLDEFREKLNEELEALWQKLK [compound 121], the “ACTIVITY (%) LCAT” value amounted to 0%.

In the case of “Ac-PALELFKDLLEEFRQRLK-NH2 [compound 213]”, the “ACTIVITY (%) LCAT” value stood at 42%.

On to `CC(C)C[C@H](NC(=O)[C@H](C)NC(=O)[C@H](CCC(=O)O)NC(=O)[C@H](CC(C)C)NC(=O)C(C)(C)NC(=O)[C@H](CCC(=O)O)NC(=O)[C@H](CC(N)=O)NC(=O)[C@H](CC(C)C)NC(=O)[C@H](CCCCN)NC(=O)[C@H](CCC(=O)O)NC(=O)[C@H](CCCNC(=N)N)NC(=O)[C@H](Cc1ccccc1)NC(=O)[C@H](CCC(=O)O)NC(=O)[C@H](CC(=O)O)NC(=O)[C@H](Cc1c[nH]c2ccccc12)NC(=O)[C@@H](NC(=O)[C@@H]1CCCN1)C(C)C)C(=O)N[C@@H](CCCCN)C(=O)N[C@@H](CCC(N)=O)C(=O)N[C@@H](CCCCN)C(=O)N[C@@H](CC(C)C)C(=O)N[C@@H](CCCCN)C(=O)O` [compound 52, PVWDEFREKLNEXLEALKQKLK] (H-PVWDEFREKLNE[Aib]LEALKQKLK-OH), for which the “ACTIVITY (%) LCAT” value was 20%.

Staying with this test, now noted: LCAT activation as compared with native human ApoA-I (= 100%), equivalent masses; listed as N-acetylated, C-amidated peptide 18AM4.
Consider “Ac-EWLEAFYKKVLEKLKELF-NH2 [compound 239, reference compound]”, for which the “ACTIVITY (%) LCAT” value is recorded as less than 11%.
